Data published in patent US8648085B2, “1, 5-dihydro-pyrazolo (3, 4-D) pyrimidin-4-one derivatives and their use as PDE9A mudulators for the treatment of CNS disorders” (Boehringer Ingelheim International GmbH, priority 2007, dated 2014).

Legend:
PDE9A [1] = biological target: T1, PDE9A (Homo sapiens, UniProt O76083); details: concentrations of up to 100 [mu]M; cited from earlier work
PDE1C = biological target: T2, PDE1C (Homo sapiens, UniProt Q14123); experiment: PDE enzymatic activity assay (SPA), PDE1C, cAMP as substrate; format: biochemical; details: ratio IC50 PDE1C / IC50 PDE9A; for illustrative purposes
T2 construct: made in house; host or cells: SF9 insect cells (crude lysate used as enzyme source)
Method: (§1) The PDE enzymatic activity assays were run as SPA, in general according to the protocol of the manufacturer (Amersham Biosciences, product number: TRKQ 7100). As enzyme source, lysate (PBS with 1% Triton X-100 supplemented with protease inhibitors, cell debris removed by centrifugation at 13.000 rpm for 30 min) of SF 9 cell expressing the human PDE of interest was used. The total protein amount included in the assay varied upon infection and production efficacy of the SF9 cells and lay in the range of […].
(§2) In general, the assay conditions were as follows: • total assay volume: 40 μl • protein amount: 0.1-50 ng • substrate concentration (cGMP or cAMP): 20 nM; ˜1 mCi/l • incubation time: 60 min at room temperature • final DMSO concentration: 1%
(§3) The assays were run in 384-well format. The test reagents as well as the enzyme and the substrate were diluted in assay buffer. The assay buffer contained 50 mM Tris, 8.3 mM MgCl2, 1.7 mM EGTA, 0.1% BSA, 0.05% Tween 20; the pH of assay buffer was adjusted to 7.5. In case activity of PDE1C was analysed, 50 nM Calmodulin and 3 mM CaCl2 were included in the assay buffer. In case PDE9 activity was analyzed, the reaction was stopped by applying a PDE9 specific inhibitor (e.g. compounds according to WO2004/099210). PDE1C was analysed with cAMP as substrate, and PDE9 was analyzed with cGMP as substrate.
(§4) IC50 can be calculated in a conventional way, eventually with the help of GraphPadPrism or other suited software setting the positive control as 100 and the negative control as 0. For calculation of IC50 usually 8 dilutions of the test compound ([…]) are to be selected and tested following the aforementioned protocol.

PDE9A [2] = biological target: T1, PDE9A; experiment: PDE enzymatic activity assay (SPA), PDE9A; format: biochemical; set-up: made in house; host or cells: SF9 insect cells (crude lysate used as enzyme source); details: cGMP substrate, for illustrative purposes; for inhibition at 10 µM: 10 micromolar; for IC50: given as ranges
Method: as §1, §2, §3
Calculation of % Inhibition:
The activity of the positive control (minus the negative control=background) is set to 100% and activity in the presence of test compound is expressed relative to these 100%.
Within this setting, an inhibition above 100% might be possible due to the nature of the variation of the positive control within the assay, however, in this case the reported % inhibition had been adjusted to 100%.
as §4

T1 sequence (O76083 whole entry): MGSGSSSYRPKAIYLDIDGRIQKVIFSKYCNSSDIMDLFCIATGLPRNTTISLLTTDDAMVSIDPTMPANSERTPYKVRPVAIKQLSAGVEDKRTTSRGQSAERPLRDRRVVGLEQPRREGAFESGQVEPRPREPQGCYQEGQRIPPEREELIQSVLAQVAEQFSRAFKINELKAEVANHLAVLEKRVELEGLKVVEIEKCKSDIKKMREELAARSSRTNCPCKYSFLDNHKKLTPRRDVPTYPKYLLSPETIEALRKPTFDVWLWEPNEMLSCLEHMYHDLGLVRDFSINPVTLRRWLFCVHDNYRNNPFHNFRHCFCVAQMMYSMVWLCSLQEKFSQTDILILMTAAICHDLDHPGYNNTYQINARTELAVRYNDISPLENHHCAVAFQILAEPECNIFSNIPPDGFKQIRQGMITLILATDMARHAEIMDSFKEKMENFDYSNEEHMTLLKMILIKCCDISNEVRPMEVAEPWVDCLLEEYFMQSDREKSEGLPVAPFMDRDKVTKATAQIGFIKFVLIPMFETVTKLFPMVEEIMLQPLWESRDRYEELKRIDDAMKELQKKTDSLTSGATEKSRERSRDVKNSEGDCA

| SMILES | inhibition on the isolated enzyme (human PDE9A) (PDE9A [1]) | Selectivity = IC50 PDE 1C/IC50 PDE9A (both nanomolar) (PDE1C) | inhibition at 10 µM (PDE9A [2]) | IC50 (PDE9A [2]) |
| --- | --- | --- | --- | --- |
| OCCN(CCO)c1nc(N2CCCCC2)c2nc(N(CCO)CCO)nc(N3CCCCC3)c2n1 [dipyridamole] | no inhibition |  |  |  |
| COc1ccc(C2CNC(=O)C2)cc1OC1CCCC1 (stereo not shown) [rolipram] | no inhibition |  |  |  |
| O=C(c1cccc(-n2ncc3c(=O)[nH]c(Cc4ccccc4OC(F)(F)F)nc32)c1)N1CCOCC1 [Example 38, 1-[3-(N-morpholino-carbonyl)-phenyl]-6-(2-trifluoromethoxy-benzyl)-1,5-dihydro-pyrazolo[3,4-d]pyrimidin-4-one] |  | 9 | 92% | > 500 nM |
| O=c1[nH]c(Cc2ccccc2OC(F)(F)F)nc2c1cnn2-c1ccc(F)cc1 [Example 11, 1-(4-Fluoro-phenyl)-6-(2-trifluoromethoxy-benzyl)-1,5-dihydro-pyrazolo[3,4-d]pyrimidin-4-one] |  | 21 | 47% | > 500 nM |
| CN(C)C(=O)c1ccc(Cl)c(-n2ncc3c(=O)[nH]c(Cc4ccccc4OC(F)(F)F)nc32)c1 [Example 36, 1-[2-Chloro-5-(dimethylamino-carbonyl)-phenyl]-6-(2-trifluoromethoxy-benzyl)-1,5-dihydro-pyrazolo[3,4-d]pyrimidin-4-one] |  | 54 | 98% | 10 to 500 nM |
| CC(=O)Nc1ccc(-c2c[nH]c(=O)cn2)cc1 [SKF94120] | no inhibition |  |  |  |
| Cc1ccc(C)c(-n2ncc3c(=O)[nH]c(Cc4ccccc4OC(F)(F)F)nc32)c1 [Example 18, 1-(2,5-Dimethyl-phenyl)-6-(2-trifluoromethoxy-benzyl)-1,5-ihydro-pyrazolo[3,4-d]pyrimidin-4-one] |  | 28 | 86% | 10 to 500 nM |
| O=C(c1ccc(Cl)c(-n2ncc3c(=O)[nH]c(Cc4ccccc4OC(F)(F)F)nc32)c1)N1CCOCC1 [Example 37, 1-[2-Chloro-5-(N-morpholino-carbonyl)-phenyl]-6-(2-trifluoromethoxy-benzyl)-1,5-dihydro-pyrazolo[3,4-d]pyrimidin-4-one] |  | 27 | 99% | 10 to 500 nM |
| O=c1[nH]c(Cc2ccccc2OC(F)(F)F)nc2c1cnn2-c1cc(O)ccc1Cl [Example 30-3, 1-(2-Chloro-5-hydroxy-phenyl)-6-(2-trifluoromethoxy-benzyl)-1,5-dihydro-pyrazolo[3,4-d]pyrimidin-4-one] |  | 14 | 100% | 10 to 500 nM |
| O=c1[nH]c(Cc2ccccc2OC(F)(F)F)nc2c1cnn2-c1cc(F)ccc1Br [Example 7, 1-(2-Bromo-5-fluoro-phenyl)-6-(2-trifluoromethoxy-benzyl)-1,5-dihydro-pyrazolo[3,4-d]pyrimidin-4-one] |  | 9 | 91% | 10 to 500 nM |
| Cc1cccc(Cl)c1-n1ncc2c(=O)[nH]c(Cc3ccccc3OC(F)(F)F)nc21 [Example 24, 1-(2-Chloro-6-methyl-phenyl)-6-(2-trifluoromethoxy-benzyl)-1,5-dihydro-pyrazolo[3,4-d]pyrimidin-4-one] |  | 49 | 87% | > 500 nM |
| O=C(c1ccc(Cl)c(-n2ncc3c(=O)[nH]c(Cc4ccccc4OC(F)(F)F)nc32)c1)N1CCCCC1 [Example 35, 1-[2-Chloro-5-(piperidine-1-carbonyl)-phenyl]-6-(2-trifluoromethoxy-benzyl)-1,5-dihydro-pyrazolo[3,4-d]pyrimidin-4-one] |  | 10 | 93% | 10 to 500 nM |
| O=c1[nH]c(Cc2ccccc2OC(F)(F)F)nc2c1cnn2-c1cc(Cl)ccc1Br [Example 8, 1-(2-Bromo-5-chloro-phenyl)-6-(2-trifluoromethoxy-benzyl)-1,5-dihydro-pyrazolo[3,4-d]pyrimidin-4-one] |  | 21 | 93% | 10 to 500 nM |
| O=c1[nH]c(Cc2ccccc2OC(F)(F)F)nc2c1cnn2-c1ncc(F)cc1F [Example 39, 6-(2-Trifluoromethoxy-benzyl)-1-(3,5-difluoro-pyridin-2-yl)-1,5-dihydro-pyrazolo[3,4-d]pyrimidin-4-one] |  | 4 | 97% | 10 to 500 nM |
| CCOC(=O)C1=C[C@]2(CC)CCCN3CCc4c(n1c1ccccc41)[C@@H]32 [vinpocetine] | no inhibition |  |  |  |
| Cc1cc(F)c(F)cc1-n1ncc2c(=O)[nH]c(Cc3ccccc3OC(F)(F)F)nc21 [Example 21, 1-(4,5-Difluoro-2-methyl-phenyl)-6-(2-trifluoromethoxy-benzyl)-1,5-dihydro-pyrazolo[3,4-d]pyrimidin-4-one] |  | 93 | 91% | 10 to 500 nM |
| O=c1[nH]c(Cc2ccccc2OC(F)(F)F)nc2c1cnn2-c1cccc(F)c1 [Example 26, 1-(3-Fluoro-phenyl)-6-(2-trifluoromethoxy-benzyl)-1,5-dihydro-pyrazolo[3,4-d]pyrimidin-4-one] |  | 24 | 51% | > 500 nM |
| O=c1[nH]c(Cc2ccccc2OC(F)(F)F)nc2c1cnn2-c1cc(Br)ccc1Cl [Example 6, 1-(5-Bromo-2-chloro-phenyl)-6-(2-trifluoromethoxy-benzyl)-1,5-dihydro-pyrazolo[3,4-d]pyrimidin-4-one] |  | 112 | 88% | 10 to 500 nM |
| O=C(O)c1cccc(-n2ncc3c(=O)[nH]c(Cc4ccccc4OC(F)(F)F)nc32)c1 [Example 30-1, 1-(3-Carbox-phenyl)-6-(2-trifluoromethoxy-benzyl)-1,5-dihydro-pyrazolo[3,4-d]pyrimidin-4-one] |  | 55 | 101% | 10 to 500 nM |
| O=c1[nH]c(Cc2ccccc2OC(F)(F)F)nc2c1cnn2-c1cc(F)ccc1Cl [Example 5, 1-(2-Chloro-5-fluoro-phenyl)-6-(2-trifluoromethoxy-benzyl)-1,5-dihydro-pyrazolo[3,4-d]pyrimidin-4-one] |  | 7 | 96% | 10 to 500 nM |
| Cc1cc(-n2ncc3c(=O)[nH]c(Cc4ccccc4OC(F)(F)F)nc32)c(Cl)cc1F [Example 23, 1-(2-Chloro-4-fluoro-5-methyl-phenyl)-6-(2-trifluoromethoxy-benzyl)-1,5-dihydro-pyrazolo[3,4-d]pyrimidin-4-one] |  | 46 | 85% | > 500 nM |
| O=c1[nH]c(Cc2ccccc2OC(F)(F)F)nc2c1cnn2-c1ccc(F)cc1O [Example 31, 1-(2-Hydroxy,4-fluoro-phenyl)-6-(2-trifluoromethoxy-benzyl)-1,5-dihydro-pyrazolo[3,4-d]pyrimidin-4-one] |  | 8 | 82% | > 500 nM |
| Cc1ccc(Cl)c(-n2ncc3c(=O)[nH]c(Cc4ccccc4OC(F)(F)F)nc32)c1 [Example 3, 1-(2-Chloro-5-methyl-phenyl)-6-(2-trifluoromethoxy-benzyl)-1,5-dihydro-pyrazolo[3,4-d]pyrimidin-4-one] |  | 4 | 95% | 10 to 500 nM |
